Reference: ChEMBL document CHEMBL1122313, “Novel 17 alpha-chloro-17 beta-sulfinyl steroids as specific inhibitors of sebaceous gland activity: potential antiacne agents” (1983)

What was measured:
Cricetinae gen. sp. [1] = assay: Inhibition of lipid synthesis in hamster flank gland after administration of 0.1 mg.; type: functional
Cricetinae gen. sp. [2] = assay: Inhibition of increase in flank organ weight after administration of 0.5 mg.; type: functional, Cricetulus griseus
Cricetinae gen. sp. [3] = assay: Inhibition of increase in flank organ weight after administration of 1.0 mg.; type: functional, Cricetulus griseus
Cricetinae gen. sp. [4] = assay: The compound was tested for the seminal vesicle weight after -5 mg sc administration for 14 days.; type: functional, Cricetulus griseus
Cricetinae gen. sp. [5] = assay: The compound was tested for the treated flank organ weight after -0.375 ug topical application for 14 days.; type: functional, Cricetulus griseus
Cricetinae gen. sp. [6] = assay: The compound was tested for the treated flank organ weight after -0.75 ug topical application for 14 days.; type: functional, Cricetulus griseus
Cricetinae gen. sp. [7] = assay: The compound was tested for the treated flank organ weight after -1 mg sc administration for 14 days.; type: functional, Cricetulus griseus
Cricetinae gen. sp. [8] = assay: The compound was tested for the treated flank organ weight after -5 mg sc administration for 14 days; type: functional, Cricetulus griseus
Cricetinae gen. sp. [9] = assay: The compound was tested for the seminal vesicle weight after -0.375 ug topical application for 14 days.; type: functional, Cricetulus griseus
Cricetinae gen. sp. [10] = assay: The compound was tested for the seminal vesicle weight after -0.75 ug topical application for 14 days.; type: functional, Cricetulus griseus
Cricetinae gen. sp. [11] = assay: The compound was tested for the seminal vesicle weight after -1 mg sc administration for 14 days.; type: functional, Cricetulus griseus

## [O-][S+](CCl)Cc1ccccc1 (stereo unspecified)
Cricetinae gen. sp. [1]
  Inhibition: 14%

## C[C@]12C=CC(=O)C=C1CCC1C2C(=O)C[C@@]2(C)C1CC[C@]2(Cl)[S+]([O-])CCc1ccccc1 (stereo partly specified)
Cricetinae gen. sp. [2]
  Inhibition: 16%
Cricetinae gen. sp. [1]
  Inhibition: 0%

## C[C@]12C=CC(=O)C=C1CCC1C2CC[C@@]2(C)C1CC[C@]2(Cl)[S+]([O-])Cc1ccccc1 (stereo partly specified)
Cricetinae gen. sp. [1]
  Inhibition: <40%

## C[C@]12C=CC(=O)C=C1CCC1C2C(=O)C[C@@]2(C)C1CC[C@]2(Cl)[S+]([O-])Cc1ccccc1 (stereo partly specified)
Cricetinae gen. sp. [2]
  Inhibition: 43%
Cricetinae gen. sp. [3]
  Inhibition: 53%
Cricetinae gen. sp. [1]
  Inhibition: <70%
Cricetinae gen. sp. [4]
  Organ weight: 128 mg
Cricetinae gen. sp. [5]
  Organ weight: <29.5 mg
Cricetinae gen. sp. [6]
  Organ weight: <23.7 mg
Cricetinae gen. sp. [7]
  Organ weight: <21.5 mg
Cricetinae gen. sp. [8]
  Organ weight: <19.5 mg
Cricetinae gen. sp. [9]
  Organ weight: 351 mg
Cricetinae gen. sp. [10]
  Organ weight: 358 mg
Cricetinae gen. sp. [11]
  Organ weight: 138 mg

## C[C@]12C=CC(=O)C=C1CCC1C2C(=O)C[C@@]2(C)C1CC[C@H]2[S+]([O-])C(Cl)c1ccccc1 (stereo partly specified)
Cricetinae gen. sp. [1]
  Inhibition: 0%

## C[C@]12C=CC(=O)C=C1CCC1C2C(=O)C[C@@]2(C)C1CC[C@]2(Cl)S(=O)(=O)Cc1ccccc1 (stereo partly specified)
Cricetinae gen. sp. [1]
  Inhibition: <31%

## C[C@]12C=CC(=O)C=C1CCC1C2[C@@H](O)C[C@@]2(C)C1CC[C@]2(Cl)[S+]([O-])Cc1ccccc1 (stereo partly specified)
Cricetinae gen. sp. [1]
  Inhibition: <20%

## C[C@]12C=CC(=O)C=C1CCC1C2CC[C@@]2(C)C1CC[C@H]2SCc1ccccc1 (stereo partly specified)
Cricetinae gen. sp. [1]
  Inhibition: 0%

## C[C@]12C=CC(=O)C=C1CCC1C2C(=O)C[C@@]2(C)C1CC[C@H]2Sc1ccccc1 (stereo partly specified)
Cricetinae gen. sp. [1]
  Inhibition: <25%

## [O-][S+](Cc1ccccc1)[C@@H](Cl)c1ccccc1 (stereo partly specified)
Cricetinae gen. sp. [1]
  Inhibition: 14%

## C[C@]12C=CC(=O)C=C1CCC1C2C(=O)C[C@@]2(C)C1CC[C@H]2SCc1ccccc1 (stereo partly specified)
Cricetinae gen. sp. [1]
  Inhibition: <29%

## C[C@]12C=CC(=O)C=C1CCC1C2[C@@H](O)C[C@@]2(C)C1CC[C@H]2SCc1ccccc1 (stereo partly specified)
Cricetinae gen. sp. [1]
  Inhibition: 0%

## C[C@]12C=CC(=O)C=C1CCC1C2C(=O)C[C@@]2(C)C1CC[C@H]2[S+]([O-])Cc1ccccc1 (stereo partly specified)
Cricetinae gen. sp. [1]
  Inhibition: 28%

## CCCCC[S+]([O-])[C@@]1(Cl)CCC2C3CCC4=CC(=O)C=C[C@]4(C)C3C(=O)C[C@@]21C (stereo partly specified)
Cricetinae gen. sp. [1]
  Inhibition: <29%

## Cc1ccccc1C[S+]([O-])[C@@]1(Cl)CCC2C3CCC4=CC(=O)C=C[C@]4(C)C3C(=O)C[C@@]21C (stereo partly specified)
Cricetinae gen. sp. [1]
  Inhibition: 31%

## C[C@]12C=CC(=O)C=C1CCC1C2C(=O)C[C@@]2(C)C1CC[C@]2(Cl)[S+]([O-])Cc1ccc(Cl)cc1Cl (stereo partly specified)
Cricetinae gen. sp. [1]
  Inhibition: 20%

## C[C@]12C=CC(=O)C=C1CCC1C2C(=O)C[C@@]2(C)C1CC[C@]2(Cl)[S+]([O-])c1ccccc1 (stereo partly specified)
Cricetinae gen. sp. [1]
  Inhibition: 20%

## C[C@]1(O)CC[C@H]2[C@@H]3CCC4=CC(=O)CC[C@@H]4[C@H]3CC[C@@]21C [NORMETHANDRONE]
Cricetinae gen. sp. [4]
  Organ weight: <94 mg
Cricetinae gen. sp. [5]
  Organ weight: <15.6 mg
Cricetinae gen. sp. [6]
  Organ weight: <13.7 mg
Cricetinae gen. sp. [7]
  Organ weight: <22.5 mg
Cricetinae gen. sp. [8]
  Organ weight: <22.1 mg
Cricetinae gen. sp. [9]
  Organ weight: 316 mg
Cricetinae gen. sp. [10]
  Organ weight: <283 mg
Cricetinae gen. sp. [11]
  Organ weight: 121 mg
